# Measurements reported in PubChem BioAssay AID1963969 (Molecular Pharmacology Branch, DTP, NCI, 2024).
# Tested on: 817829-284-R-J1-PDC multi-cell spheroid viability
# Assay: Anticancer human tumor 817829-284-R-J1-PDC patient-derived colon adenocarcinoma cell line growth inhibition [PI3K]
# Details: for IC50: curve of first compound; for viability, T/C: stronger effect = lower value
# How it was run: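 Combination activity was assessed by viability in multicellular tumor spheroids carrying HUVEC and MSC components. Agents were tested with PI3K inhibitors from a Cmax-based top dose (or 10 microM) downward in half-log increments.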
# [1] = second compound 0.00316 µM, first compound 0.0316 µM
# [2] = second compound 0.00316 µM, first compound 0.1 µM
# [3] = second compound 0.00316 µM, first compound 0.316 µM
# [4] = second compound 0.00316 µM, first compound 1 µM
# [5] = second compound 0.00316 µM, first compound 3.16 µM
# [6] = second compound 0.00316 µM, first compound 10 µM
# [7] = second compound 0.01 µM, first compound 0.0316 µM
# [8] = second compound 0.01 µM, first compound 0.1 µM
# [9] = second compound 0.01 µM, first compound 0.316 µM
# [10] = second compound 0.01 µM, first compound 1 µM
# [11] = second compound 0.01 µM, first compound 3.16 µM
# [12] = second compound 0.01 µM, first compound 10 µM
# [13] = second compound 0.0316 µM, first compound 0.0316 µM
# [14] = second compound 0.0316 µM, first compound 0.1 µM
# [15] = second compound 0.0316 µM, first compound 0.316 µM
# [16] = second compound 0.0316 µM, first compound 1 µM
# [17] = second compound 0.0316 µM, first compound 3.16 µM
# [18] = second compound 0.0316 µM, first compound 10 µM
# [19] = second compound 0.1 µM, first compound 0.0316 µM
# [20] = second compound 0.1 µM, first compound 0.1 µM
# [21] = second compound 0.1 µM, first compound 0.316 µM
# [22] = second compound 0.1 µM, first compound 1 µM
# [23] = second compound 0.1 µM, first compound 3.16 µM
# [24] = second compound 0.1 µM, first compound 10 µM
# [25] = second compound 0.316 µM, first compound 0.0316 µM
# [26] = second compound 0.316 µM, first compound 0.1 µM
# [27] = second compound 0.316 µM, first compound 0.316 µM
# [28] = second compound 0.316 µM, first compound 1 µM
# [29] = second compound 0.316 µM, first compound 3.16 µM
# [30] = second compound 0.316 µM, first compound 10 µM
# [31] = second compound 1 µM, first compound 0.0316 µM
# [32] = second compound 1 µM, first compound 0.1 µM
# [33] = second compound 1 µM, first compound 0.316 µM
# [34] = second compound 1 µM, first compound 1 µM
# [35] = second compound 1 µM, first compound 3.16 µM
# [36] = second compound 1 µM, first compound 10 µM
# 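Further: spheroids exposed to agents for seven days before readout.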
# 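Wherever viability, T/C is given: percent of vehicle DMSO control viability which is 100%.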
structure (smiles),measurement,setting,value
CNC(=O)c1ccc(N2C(=S)N(c3ccc(C#N)c(C(F)(F)F)c3)C(=O)C2(C)C)cc1F + CC(Nc1ccc2c(c1)OCCn1cc(N3C(=O)OCC3C(F)F)nc1-2)C(N)=O,IC50,second compound 0.00316 µM,> 10 µM
same,IC50,second compound 0.01 µM,> 10 µM
same,IC50,second compound 0.0316 µM,> 10 µM
same,IC50,second compound 0.1 µM,4.18 µM
same,IC50,second compound 0.316 µM,3.37 µM
same,IC50,second compound 1 µM,< 0.0316 µM
same,"viability, T/C",[1],57.7%
same,"viability, T/C",[2],88.8%
same,"viability, T/C",[3],109%
same,"viability, T/C",[4],75.6%
same,"viability, T/C",[5],61.9%
same,"viability, T/C",[6],50.9%
same,"viability, T/C",[7],86.1%
same,"viability, T/C",[8],77.6%
same,"viability, T/C",[9],89.1%
same,"viability, T/C",[10],70.7%
same,"viability, T/C",[11],60.5%
same,"viability, T/C",[12],71.4%
same,"viability, T/C",[13],70.1%
same,"viability, T/C",[14],79.2%
same,"viability, T/C",[15],87.5%
same,"viability, T/C",[16],56.7%
same,"viability, T/C",[17],67.1%
same,"viability, T/C",[18],54.6%
same,"viability, T/C",[19],56.5%
same,"viability, T/C",[20],53.4%
same,"viability, T/C",[21],65.9%
same,"viability, T/C",[22],48.9%
same,"viability, T/C",[23],61.6%
same,"viability, T/C",[24],27.3%
same,"viability, T/C",[25],46.8%
same,"viability, T/C",[26],61.8%
same,"viability, T/C",[27],58%
same,"viability, T/C",[28],53.5%
same,"viability, T/C",[29],51%
same,"viability, T/C",[30],32.8%
same,"viability, T/C",[31],32.4%
same,"viability, T/C",[32],40.7%
same,"viability, T/C",[33],44.9%
same,"viability, T/C",[34],45.9%
same,"viability, T/C",[35],41.4%
same,"viability, T/C",[36],20.6%
C[C@@H](NC(=O)c1ncnc(N)c1Cl)c1ncc(C(=O)Nc2cc(C(F)(F)F)c(Cl)cn2)s1 + COc1c(OCCCN2CCOCC2)ccc2c3n(c(=NC(=O)c4cnc(N)nc4)nc12)CCN3,IC50,second compound 0.00316 µM,10 µM
same,IC50,second compound 0.01 µM,> 10 µM
same,IC50,second compound 0.0316 µM,> 10 µM
same,IC50,second compound 0.1 µM,< 0.0316 µM
same,IC50,second compound 0.316 µM,< 0.0316 µM
same,IC50,second compound 1 µM,< 0.0316 µM
same,"viability, T/C",[1],126%
same,"viability, T/C",[2],153%
same,"viability, T/C",[3],59.9%
same,"viability, T/C",[4],62%
same,"viability, T/C",[5],69.7%
same,"viability, T/C",[6],69.3%
same,"viability, T/C",[7],101%
same,"viability, T/C",[8],79.9%
same,"viability, T/C",[9],72%
same,"viability, T/C",[10],68.5%
same,"viability, T/C",[11],75.3%
same,"viability, T/C",[12],87.7%
same,"viability, T/C",[13],68.5%
same,"viability, T/C",[14],64.1%
same,"viability, T/C",[15],43.2%
same,"viability, T/C",[16],57.1%
same,"viability, T/C",[17],64%
same,"viability, T/C",[18],72.3%
same,"viability, T/C",[19],31%
same,"viability, T/C",[20],38%
same,"viability, T/C",[21],29.8%
same,"viability, T/C",[22],32.3%
same,"viability, T/C",[23],41.5%
same,"viability, T/C",[24],62.8%
same,"viability, T/C",[25],26.3%
same,"viability, T/C",[26],20%
same,"viability, T/C",[27],24.6%
same,"viability, T/C",[28],23.8%
same,"viability, T/C",[29],21.9%
same,"viability, T/C",[30],16.5%
same,"viability, T/C",[31],11.8%
same,"viability, T/C",[32],10.6%
same,"viability, T/C",[33],10.6%
same,"viability, T/C",[34],9.58%
same,"viability, T/C",[35],10%
same,"viability, T/C",[36],4.95%
CCCS(=O)(=O)Nc1ccc(F)c(C(=O)c2c[nH]c3ncc(-c4ccc(Cl)cc4)cc23)c1F + CC(Nc1ncnc2nc[nH]c12)c1cc2cccc(Cl)c2c(=O)n1-c1ccccc1,IC50,second compound 0.0316 µM,4.76 µM
same,IC50,second compound 0.1 µM,4.21 µM
same,IC50,second compound 0.316 µM,3.33 µM
same,IC50,second compound 1 µM,4.31 µM
same,IC50,second compound 3.16 µM,1.35 µM
same,IC50,second compound 10 µM,1.79 µM
same,"viability, T/C",[13],110%
same,"viability, T/C",[14],61.7%
same,"viability, T/C",[15],62.3%
same,"viability, T/C",[16],52%
same,"viability, T/C",[17],90.5%
same,"viability, T/C",[18],4.04%
same,"viability, T/C",[19],78%
same,"viability, T/C",[20],72.6%
same,"viability, T/C",[21],72.7%
same,"viability, T/C",[22],89%
same,"viability, T/C",[23],63.9%
same,"viability, T/C",[24],7.99%
same,"viability, T/C",[25],98.2%
same,"viability, T/C",[26],70%
same,"viability, T/C",[27],101%
same,"viability, T/C",[28],60.6%
same,"viability, T/C",[29],57.8%
same,"viability, T/C",[30],4.81%
same,"viability, T/C",[31],66.9%
same,"viability, T/C",[32],70.5%
same,"viability, T/C",[33],87%
same,"viability, T/C",[34],38.3%
same,"viability, T/C",[35],68.3%
same,"viability, T/C",[36],6.14%
same,"viability, T/C","second compound 3.16 µM, first compound 0.0316 µM",114%
same,"viability, T/C","second compound 3.16 µM, first compound 0.1 µM",89%
same,"viability, T/C","second compound 3.16 µM, first compound 0.316 µM",68.6%
same,"viability, T/C","second compound 3.16 µM, first compound 1 µM",59%
same,"viability, T/C","second compound 3.16 µM, first compound 3.16 µM",47.2%
same,"viability, T/C","second compound 3.16 µM, first compound 10 µM",8.3%
same,"viability, T/C","second compound 10 µM, first compound 0.0316 µM",72.4%
same,"viability, T/C","second compound 10 µM, first compound 0.1 µM",75.2%
same,"viability, T/C","second compound 10 µM, first compound 0.316 µM",68.9%
same,"viability, T/C","second compound 10 µM, first compound 1 µM",49.8%
same,"viability, T/C","second compound 10 µM, first compound 3.16 µM",47.7%
same,"viability, T/C","second compound 10 µM, first compound 10 µM",9.39%
